Earlier results as cited in US11672759B2 (priority 2017, dated 2023).

Details: estimated

SMILES: COc1cc2c(c(OC)c1OC)-c1ccc(OC)c(=O)cc1[C@@H](NC(C)=O)CC2 [colchicine, N-((7S)-5,6,7,9-tetrahydro-1,2,3,10-tetramethoxy-9-oxobenzo(a)heptalen-7-yl)-acetamide]
- effective dose: approximately 0.015 mg/kg
- toxic dose: greater than 0.1 mg/kg
- typically lethal dose: approximately 0.8 mg/kg
